Laboratory results published in ChEMBL document CHEMBL5338790, “Discovery of Subcellular-Targeted Aza-BODIPY Photosensitizers for Efficient Photodynamic Antitumor Therapy” (J Med Chem, 2023).
Activity calls are given as the source filed them. The rule behind the calls is not given here.

Assays:
HeLa [1] = experiment: Induction of apoptosis in human HeLa cells assessed as late apoptotic cells at 100 nM incubated for 3 hrs by Annexin V-FITC/PI staining based flow cytometry relative to control; format: toxicity, cell-based; conditions: 0.1 µM
HeLa [2] = experiment: Disruption of lysosomes in human HeLa cells at 100 nM incubated for 3 hrs by AO staining based confocal scanning microscopy; format: functional, cell-based
[3] = Toxicity in Balb/C nu/nu mouse xenografted with human HeLa cells assessed as change in spleen histology at 2.5 umol/kg, iv with photo-irradiation at 30 J/cm2 after 1 hr of compound administration measured after 24 days by H and E staining based analysis; format: organism-based; conditions: in vivo, 576 h, dose 2.5 µmol/kg, time 24 day
HeLa [4] = experiment: Disruption of lysosomes in human HeLa cells at 50 to 100 nM incubated for 3 hrs with photo-irradiation at 16 J/cm2 by AO staining based confocal scanning microscopy; format: functional, cell-based; conditions: dose 50-100 nM
HeLa [5] = experiment: Induction of apoptosis in human HeLa cells assessed as necrotic cells at 12.5 nM incubated for 3 hrs with photo-irradiation at 54 J/cm2 by Annexin V-FITC/PI staining based flow cytometry relative to control; format: functional
HeLa [6] = experiment: Induction of apoptosis in human HeLa cells assessed as necrotic cells at 100 nM incubated for 3 hrs with photo-irradiation at 54 J/cm2 by Annexin V-FITC/PI staining based flow cytometry relative to control; format: functional
HeLa [7] = experiment: Induction of apoptosis in human HeLa cells assessed as viable cells at 50 nM incubated for 3 hrs with photo-irradiation at 54 J/cm2 by Annexin V-FITC/PI staining based flow cytometry relative to control; format: functional; conditions: light or radiation study, read-out: Activity
HeLa [8] = experiment: Induction of apoptosis in human HeLa cells assessed as early apoptotic cells at 25 nM incubated for 3 hrs with photo-irradiation at 54 J/cm2 by Annexin V-FITC/PI staining based flow cytometry relative to control; format: functional
[9] = Drug localization in lysosome of human HeLa cells at 5 uM incubated for 30 mins by Lyso-tracker Green DND-26 dye based confocal scanning microscopic analysis; format: ADME, subcellular; conditions: 0.5 h
B16-F10 = experiment: Photodynamic cytotoxicity against mouse B16-F10 cells assessed as inhibition of cell viability incubated for 3 hrs followed by photo-irradiation at 54 J/cm2 measured after 24 hrs by CCK8 assay; format: functional, cell-based; conditions: B16-F10, light or radiation study
HeLa [10] = experiment: Induction of apoptosis in human HeLa cells assessed as viable cells at 100 nM incubated for 3 hrs with photo-irradiation at 54 J/cm2 by Annexin V-FITC/PI staining based flow cytometry relative to control; format: functional; conditions: light or radiation study, read-out: Activity
HeLa [11] = experiment: Induction of apoptosis in human HeLa cells assessed as increase in percentage of apoptosis/necrosis at 12.5 nM incubated for 3 hrs with photo-irradiation at 54 J/cm2 by Annexin V-FITC/PI staining based flow cytometry relative to control; format: functional
HeLa [12] = experiment: Induction of apoptosis in human HeLa cells assessed as early apoptotic cells at 100 nM incubated for 3 hrs with photo-irradiation at 54 J/cm2 by Annexin V-FITC/PI staining based flow cytometry relative to control; format: functional
HeLa [13] = experiment: Induction of apoptosis in human HeLa cells assessed as viable cells at 100 nM incubated for 3 hrs by Annexin V-FITC/PI staining based flow cytometry relative to control; format: toxicity, cell-based; conditions: read-out: Activity
[14] = Drug distribution in spleen of Balb/C nu/nu mouse xenografted with human HeLa cells at 2.5 umol/kg, iv measured for 24 hr by IVIS imaging analysis; format: ADME, organism-based; conditions: in vivo, dose 2.5 µmol/kg
[15] = Drug distribution in kidneys of Balb/C nu/nu mouse xenografted with human HeLa cells at 2.5 umol/kg, iv measured for 1 hr by IVIS imaging analysis; format: ADME, organism-based, Kidney; conditions: in vivo, dose 2.5 µmol/kg
[16] = Drug localization in mitochondria of human HeLa cells at 5 uM incubated for 30 mins by MitoTracker Green FM dye based confocal scanning microscopic analysis; format: ADME; conditions: 0.5 h
HeLa [17] = experiment: Induction of apoptosis in human HeLa cells assessed as increase in percentage of apoptosis/necrosis at 50 nM incubated for 3 hrs with photo-irradiation at 54 J/cm2 by Annexin V-FITC/PI staining based flow cytometry relative to control; format: functional
HeLa [18] = experiment: Induction of apoptosis in human HeLa cells assessed as viable cells at 25 nM incubated for 3 hrs with photo-irradiation at 54 J/cm2 by Annexin V-FITC/PI staining based flow cytometry relative to control; format: functional; conditions: light or radiation study, read-out: Activity
HeLa [19] = experiment: Induction of apoptosis in human HeLa cells assessed as increase in percentage of apoptosis/necrosis at 25 nM incubated for 3 hrs with photo-irradiation at 54 J/cm2 by Annexin V-FITC/PI staining based flow cytometry relative to control; format: functional
[20] = Drug distribution in kidneys of Balb/C nu/nu mouse xenografted with human HeLa cells at 2.5 umol/kg, iv measured for 24 hr by IVIS imaging analysis; format: ADME, organism-based, Kidney; conditions: in vivo, dose 2.5 µmol/kg
HeLa [21] = experiment: Induction of apoptosis in human HeLa cells assessed as necrotic cells at 100 nM incubated for 3 hrs by Annexin V-FITC/PI staining based flow cytometry relative to control; format: toxicity, cell-based; conditions: 0.1 µM
[22] = Cytotoxicity against mouse B16-F10 cells assessed as inhibition of cell viability under dark condition incubated for 27 hrs by CCK8 assay; format: toxicity, cell-based
[23] = Toxicity in Balb/C nu/nu mouse xenografted with human HeLa cells assessed as increase in body weight at 2.5 umol/kg, iv with photo-irradiation at 30 J/cm2 after 1 hr of compound administration measured for 24 days; format: organism-based; conditions: in vivo, 576 h, dose 2.5 µmol/kg, time 24 day
HeLa [24] = experiment: Induction of apoptosis in human HeLa cells assessed as late apoptotic cells at 50 nM incubated for 3 hrs with photo-irradiation at 54 J/cm2 by Annexin V-FITC/PI staining based flow cytometry relative to control; format: functional
[25] = Drug concentration in plasma of Balb/C nu/nu mouse xenografted with human HeLa cells at 2.5 umol/kg, iv measured after 24 hr by IVIS imaging analysis; format: ADME, organism-based; conditions: in vivo, at 2.5 µmol/kg
[26] = Drug distribution in lungs of Balb/C nu/nu mouse xenografted with human HeLa cells at 2.5 umol/kg, iv measured for 1 hr by IVIS imaging analysis; format: ADME, organism-based, Lung; conditions: in vivo, dose 2.5 µmol/kg
HeLa [27] = experiment: Induction of apoptosis in human HeLa cells assessed as late apoptotic cells at 12.5 nM incubated for 3 hrs with photo-irradiation at 54 J/cm2 by Annexin V-FITC/PI staining based flow cytometry relative to control; format: functional
[28] = Drug localization in endoplasmic reticulum of human HeLa cells at 5 uM incubated for 30 mins by ER-Tracker Green dye based confocal scanning microscopic analysis; format: ADME; conditions: 0.5 h
[29] = Toxicity in Balb/C nu/nu mouse xenografted with human HeLa cells assessed as drug tolerance at 2.5 umol/kg, iv with photo-irradiation at 30 J/cm2 after 1 hr of compound administration measured for 24 days; format: organism-based; conditions: in vivo, 576 h, dose 2.5 µmol/kg, time 24 day
HeLa [30] = experiment: Induction of apoptosis in human HeLa cells assessed as late apoptotic cells at 100 nM incubated for 3 hrs with photo-irradiation at 54 J/cm2 by Annexin V-FITC/PI staining based flow cytometry relative to control; format: functional
[31] = Drug distribution in tumor of Balb/C nu/nu mouse xenografted with human HeLa cells at 2.5 umol/kg, iv measured for 1 hr by IVIS imaging analysis; format: ADME, organism-based, Neoplasm; conditions: in vivo, dose 2.5 µmol/kg

With `COc1ccc2c(c1)CCc1c(-c3ccccc3)c3n(c1-2)[B-](F)(F)[N+]1=C(c2ccc(OCC(=O)NCCCN4CCOCC4)cc2)C(I)=C(c2ccccc2)C1=N3` the Activity (HeLa [1]) was 5.79%, the Activity (HeLa [2]) was “inactive” and the Activity [3] was “Non-Toxic”. The Activity (HeLa [4]) was “Active”, the Activity (HeLa [5]) was 1.07% and the Activity (HeLa [6]) was 0.57%. The viability at 0.05 µM (HeLa [7]) was 25.4%, the Activity (HeLa [8]) was 36.45% and the Drug uptake [9] was “Active”. For the same compound, the IC50 (B16-F10) was 7.2 nM, the viability at 0.1 µM (HeLa [10]) was 9.73% and the Activity (HeLa [11]) was 10.9%. For the same compound, the Activity (HeLa [12]) was 73.1%, the viability at 0.1 µM (HeLa [13]) was 91.7% and the Drug uptake [14] was “Not Active”. For the same compound, the Drug uptake [15] was “Active”, the Drug uptake [16] was “Not Active” and the Activity (HeLa [17]) was 41.8%. The viability at 0.025 µM (HeLa [18]) was 47%, the Activity (HeLa [19]) was 13.1% and the Drug uptake [20] was “Not Active”. For the same compound, the Activity (HeLa [21]) was 1.04%, the IC50 at 27 h [22] was over 50000 nM and the Activity [23] was “Non-Toxic”. The Activity (HeLa [24]) was 13.58%, the Drug uptake [25] was 1% and the Drug uptake [26] was “Active”. For the same compound, the Activity (HeLa [27]) was 5.57%, the Drug uptake [28] was “Not Active” and the Activity [29] was “Non-Toxic”. For the same compound, the Activity (HeLa [30]) was 16.6% and the Drug uptake [31] was “Active”.
